Test results from article PMC10035389, “Safety, Tolerability, and Pharmacokinetics of TAK-931, a Cell Division Cycle 7 Inhibitor, in Patients with Advanced Solid Tumors: A Phase I First-in-Human Study” (Cancer Research Communications, 2022).

System: patients with advanced solid tumors
Experiment: Safety and tolerability (adverse events, NCI CTCAE v4.03), phase I dose-escalation study
Type: in vivo, human
From the text: This was a phase I, open-label, dose-escalation study of single-agent TAK-931. Dose escalation of TAK-931 was cohort based with an adaptive design using Bayesian logistic regression modeling (BLRM) with pharmacokinetic guidance. BLRM also guided MTD estimation from the second dose. Patients were enrolled in one of four dosing schedules (A, B, D, or E; Supplementary Fig. S1) to receive TAK-931. Two additional schedules were planned (C and F) but no patients were enrolled. Schedule A included an initial accelerated escalation phase. TAK-931 was administered once daily for 14 days in 21-day cycles starting at 30 mg, which doubled until a cycle 1 dose-limiting toxicity (DLT) was observed, when 2 patients experienced grade ≥2 treatment-related toxicity, or when maximum geometric mean plasma concentration (Cmax) for the cohort reached or exceeded 800 ng/mL [threshold for off-target adverse effects (hypotension) in animal toxicology studies]; then dose escalation transitioned to modified Fibonacci escalation steps. In schedule B (based on experience with schedule A), patients received TAK-931 once daily or twice daily for 7 days on, 7 days off in a 28-day cycle starting at 60 mg. In schedule D, patients received TAK-931 once daily starting at 20 mg in 21-day cycles; BLRM was not applied but further adjustments were dependent on observed safety, pharmacokinetics, and pharmacodynamics. In schedule E, patients received TAK-931 once daily for 2 days on, 5 days off starting at 100 mg in 21-day cycles. A safety expansion was permitted once MTD had been determined. Prophylactic growth factors were permitted in all schedules to manage severe and/or febrile neutropenia. TAK-931 treatment continued until unacceptable toxicity, disease progression, or patient withdrawal.
DLTs included: cycle 1 grade ≥3 hematologic and non-hematologic events or grade 2 non-hematologic events considered by the investigator to be TAK-931-related, grade 2 ejection fraction decrease, >2 weeks delay in initiating cycle 2 (1 week for schedules D and E), and >50% TAK-931 dose reduction in cycle 1 due to treatment-related adverse events (AEs; see Supplementary Materials and Methods for full DLT criteria). Toxicity was evaluated by NCI Common Terminology Criteria for Adverse Events (version 4.03). Tumor response was measured using the RECIST (version 1.1) ([16]). Serial blood samples for pharmacokinetic analysis were collected during cycle 1 on days 1 and 7 (schedule B), 1 and 8 (schedules A and D), or 1 and 9 (schedule E). Pharmacokinetic parameters were estimated from concentration–time profiles using noncompartmental methods with WinNonlin® Phoenix™ version 8.1 (Certara, Princeton, NJ). pMCM2 was detected semiquantitatively by IHC of histologic sections of formalin-fixed, paraffin-embedded skin and tumor biopsies using anti-pMCM2 (3378-1, Epitomics Inc.; ref. [15]). Quantitative image analysis determined pMCM2 levels as “histologic score nuclei (H-score).” Skin punch biopsies (2–4 mm) were obtained during screening or predose on cycle 1, day 1 and for patients in schedules A, B, and D, postdose on any drug dosing day after 3 consecutive dosing days in cycle 1. A postdose skin biopsy was obtained on day 9 in schedule E. Fresh tumor biopsy pairs were collected predose and postdose on any dosing day after the completion of 3 consecutive dosing days in cycle 1 from patients who received doses considered to have biological effect.
The safety population included patients who received ≥1 dose of TAK-931. The pharmacodynamic-evaluable population comprised patients from the safety population with a baseline and ≥1 additional postbaseline biopsy sample that was suitable for pMCM2 analysis. The pharmacokinetic-evaluable population included patients with sufficient dosing and TAK-931 concentration–time data to estimate pharmacokinetic parameters. […]

[1] = Schedule A (once daily 14 days, 21-day cycles) n = 25
[2] = Schedule B (7 days on, 7 days off, 28-day cycles) n = 24
[3] = Schedule D (continuous once daily) n = 18

Structure (SMILES): Cc1[nH]ncc1-c1cc2nc([C@@H]3CC4CCN3CC4)[nH]c(=O)c2s1 [TAK-931, simurosertib]
- Abdominal pain, AE any grade [1]: 2 (8) n (%)
- Alopecia, AE any grade [1]: 6 (24) n (%)
- Anemia, AE any grade [1]: 6 (24) n (%)
- Anemia, grade ≥3 AE [1]: 1 (4) n %
- Arthralgia, AE any grade [1]: 3 (12) n (%)
- Blood creatinine increased, AE any grade [1]: 3 (12) n (%)
- Constipation, AE any grade [1]: 2 (8) n (%)
- Cough, AE any grade [1]: 3 (12) n (%)
- Decreased appetite, AE any grade [1]: 7 (28) n (%)
- Decreased appetite, grade ≥3 AE [1]: 2 (8) n %
- Diarrhea, AE any grade [1]: 7 (28) n (%)
- Dry skin, AE any grade [1]: 1 (4) n (%)
- Edema peripheral, AE any grade [1]: 4 (16) n (%)
- Electrocardiogram QT prolonged, AE any grade [1]: 3 (12) n (%)
- Fall, AE any grade [1]: 0 (0) n (%)
- Fatigue, AE any grade [1]: 2 (8) n (%)
- Febrile neutropenia, AE any grade [1]: 1 (4) n (%)
- Febrile neutropenia, grade ≥3 AE [1]: 1 (4) n %
- Gamma-glutamyltransferase increased, AE any grade [1]: 0 (0) n (%)
- Gamma-glutamyltransferase increased, grade ≥3 AE [1]: 0 (0) n %
- Hypoalbuminemia, AE any grade [1]: 4 (16) n (%)
- Hypoalbuminemia, grade ≥3 AE [1]: 0 (0) n %
- Hypophosphatemia, grade ≥3 AE [1]: 1 (4) n %
- Hypotension, AE any grade [1]: 2 (8) n (%)
- Leukopenia, AE any grade [1]: 5 (20) n (%)
- Leukopenia, grade ≥3 AE [1]: 5 (20) n %
- Lymphocyte count decreased, AE any grade [1]: 3 (12) n (%)
- Lymphocyte count decreased, grade ≥3 AE [1]: 1 (4) n %
- Lymphopenia, AE any grade [1]: 2 (8) n (%)
- Malaise, AE any grade [1]: 5 (20) n (%)
- Nasopharyngitis, AE any grade [1]: 2 (8) n (%)
- Nausea, AE any grade [1]: 15 (60) n (%)
- Neutropenia, AE any grade [1]: 12 (48) n (%)
- Neutropenia, grade ≥3 AE [1]: 11 (44) n %
- Orthostatic hypotension, AE any grade [1]: 0 (0) n (%)
- Platelet count decreased, AE any grade [1]: 2 (8) n (%)
- Pruritus, AE any grade [1]: 0 (0) n (%)
- Pyrexia, AE any grade [1]: 5 (20) n (%)
- Rash popular, AE any grade [1]: 0 (0) n (%)
- Stomatitis, AE any grade [1]: 0 (0) n (%)
- Thrombocytopenia, AE any grade [1]: 1 (4) n (%)
- Tumor pain, AE any grade [1]: 3 (12) n (%)
- Vomiting, AE any grade [1]: 7 (28) n (%)
- White blood cell count decreased, AE any grade [1]: 8 (32) n (%)
- White blood cell count decreased, grade ≥3 AE [1]: 3 (12) n %
- Abdominal pain, AE any grade [2]: 3 (13) n (%)
- Alopecia, AE any grade [2]: 13 (54) n (%)
- Anemia, AE any grade [2]: 4 (17) n (%)
- Anemia, grade ≥3 AE [2]: 3 (13) n %
- Arthralgia, AE any grade [2]: 1 (4) n (%)
- Blood creatinine increased, AE any grade [2]: 3 (13) n (%)
- Constipation, AE any grade [2]: 5 (21) n (%)
- Cough, AE any grade [2]: 0 (0) n (%)
- Decreased appetite, AE any grade [2]: 5 (21) n (%)
- Decreased appetite, grade ≥3 AE [2]: 0 (0) n %
- Diarrhea, AE any grade [2]: 4 (17) n (%)
- Dry skin, AE any grade [2]: 1 (4) n (%)
- Edema peripheral, AE any grade [2]: 1 (4) n (%)
- Electrocardiogram QT prolonged, AE any grade [2]: 0 (0) n (%)
- Fall, AE any grade [2]: 1 (4) n (%)
- Fatigue, AE any grade [2]: 5 (21) n (%)
- Febrile neutropenia, AE any grade [2]: 3 (13) n (%)
- Febrile neutropenia, grade ≥3 AE [2]: 3 (13) n %
- Gamma-glutamyltransferase increased, AE any grade [2]: 3 (13) n (%)
- Gamma-glutamyltransferase increased, grade ≥3 AE [2]: 2 (8) n %
- Hypoalbuminemia, AE any grade [2]: 2 (8) n (%)
- Hypoalbuminemia, grade ≥3 AE [2]: 2 (8) n %
- Hypophosphatemia, grade ≥3 AE [2]: 1 (4) n %
- Hypotension, AE any grade [2]: 4 (17) n (%)
- Leukopenia, AE any grade [2]: 13 (54) n (%)
- Leukopenia, grade ≥3 AE [2]: 6 (25) n %
- Lymphocyte count decreased, AE any grade [2]: 0 (0) n (%)
- Lymphocyte count decreased, grade ≥3 AE [2]: 0 (0) n %
- Lymphopenia, AE any grade [2]: 3 (13) n (%)
- Malaise, AE any grade [2]: 1 (4) n (%)
- Nasopharyngitis, AE any grade [2]: 3 (13) n (%)
- Nausea, AE any grade [2]: 21 (88) n (%)
- Neutropenia, AE any grade [2]: 19 (79) n (%)
- Neutropenia, grade ≥3 AE [2]: 15 (63) n %
- Orthostatic hypotension, AE any grade [2]: 1 (4) n (%)
- Platelet count decreased, AE any grade [2]: 1 (4) n (%)
- Pruritus, AE any grade [2]: 3 (13) n (%)
- Pyrexia, AE any grade [2]: 1 (4) n (%)
- Rash popular, AE any grade [2]: 3 (13) n (%)
- Stomatitis, AE any grade [2]: 6 (25) n (%)
- Thrombocytopenia, AE any grade [2]: 4 (17) n (%)
- Tumor pain, AE any grade [2]: 1 (4) n (%)
- Vomiting, AE any grade [2]: 13 (54) n (%)
- White blood cell count decreased, AE any grade [2]: 5 (21) n (%)
- White blood cell count decreased, grade ≥3 AE [2]: 3 (13) n %
- Abdominal pain, AE any grade [3]: 0 (0) n (%)
- Alopecia, AE any grade [3]: 3 (17) n (%)
- Anemia, AE any grade [3]: 3 (17) n (%)
- Anemia, grade ≥3 AE [3]: 1 (6) n %
- Arthralgia, AE any grade [3]: 1 (6) n (%)
- Blood creatinine increased, AE any grade [3]: 1 (6) n (%)
- Constipation, AE any grade [3]: 2 (11) n (%)
- Cough, AE any grade [3]: 0 (0) n (%)
- Decreased appetite, AE any grade [3]: 6 (33) n (%)
- Decreased appetite, grade ≥3 AE [3]: 1 (6) n %
- Diarrhea, AE any grade [3]: 1 (6) n (%)
- Dry skin, AE any grade [3]: 1 (6) n (%)
- Edema peripheral, AE any grade [3]: 2 (11) n (%)
- Electrocardiogram QT prolonged, AE any grade [3]: 0 (0) n (%)
- Fall, AE any grade [3]: 1 (6) n (%)
- Fatigue, AE any grade [3]: 3 (17) n (%)
- Febrile neutropenia, AE any grade [3]: 0 (0) n (%)
- Febrile neutropenia, grade ≥3 AE [3]: 0 (0) n %
- Gamma-glutamyltransferase increased, AE any grade [3]: 0 (0) n (%)
- Gamma-glutamyltransferase increased, grade ≥3 AE [3]: 0 (0) n %
- Hypoalbuminemia, AE any grade [3]: 0 (0) n (%)
- Hypoalbuminemia, grade ≥3 AE [3]: 0 (0) n %
- Hypophosphatemia, grade ≥3 AE [3]: 0 (0) n %
- Hypotension, AE any grade [3]: 0 (0) n (%)
- Leukopenia, AE any grade [3]: 0 (0) n (%)
- Leukopenia, grade ≥3 AE [3]: 0 (0) n %
- Lymphocyte count decreased, AE any grade [3]: 0 (0) n (%)
- Lymphocyte count decreased, grade ≥3 AE [3]: 0 (0) n %
- Lymphopenia, AE any grade [3]: 0 (0) n (%)
- Malaise, AE any grade [3]: 3 (17) n (%)
- Nasopharyngitis, AE any grade [3]: 1 (6) n (%)
- Nausea, AE any grade [3]: 5 (28) n (%)
- Neutropenia, AE any grade [3]: 6 (33) n (%)
- Neutropenia, grade ≥3 AE [3]: 3 (17) n %
- Orthostatic hypotension, AE any grade [3]: 0 (0) n (%)
- Platelet count decreased, AE any grade [3]: 2 (11) n (%)
- Pruritus, AE any grade [3]: 1 (6) n (%)
- Pyrexia, AE any grade [3]: 2 (11) n (%)
